From patent US20060121085A1, “Formulations for cell-schedule dependent anticancer agents” (priority 2003, published 2006)
Read-outs that look alike come from different tables or passages of the source.

Tests used:
[1] = system: subcutaneous Hey (Human Ovarian Cancer) tumors; conditions: 100 mg/kg FUDR/Saline × 2 (1 & 14 days), i.p., 20 μL
Experimental: In this study, SCID mice bearing established (˜0.5 cm diameter) SC ovarian (Hey) tumors were used in this study and were randomized to equalize the tumor volume prior to initiation of drug therapy. Doses of 50 and 100 mg/kg were administered intratumorally. Floxuridine in saline at 100 mg/kg was administered by intraperitoneal injection. ATRIGEL® alone was administered in a volume equal to the 100 mg/kg group.
Mice were injected with 10×10^6 Hey (Human Ovarian Cancer) cells. When the average tumor diameter was approximately 0.5 cm, mice were divided into treatment groups such that the mean tumor volume in each group was equivalent and drug was administered. […] The volume of Floxuridine/polymer used was calculated assuming total release of drug from the polymer and a drug concentration of 0.10 mg/μL of polymer. […]
• All SCID mice used for this study were screened for IgG production and those mice producing IgG (“leaky”) were eliminated from the study group. • Mice were injected with 10×10^6 Hey cells. • When tumors achieved approximately 0.5 cm diameter, drug treatments were initiated. […] All treatments consisted of two injections (Days 1 and 14). • Mice were monitored weekly for weight, tumor size and toxicity symptoms (survival, general health, fur condition, etc.) for at least 5 weeks and the efficacy was compared

[2] = mouse at 2.5 and 100 mg/kg (cleft palate, skeletal defects, limb deformities); cited from earlier work
mouse embryo fibroblasts = conditions: cited from earlier work
[3] = Mouse; cited from earlier work
[4] = Rat; cited from earlier work
[5] = Rabbit; cited from earlier work
[6] = Dog; cited from earlier work
[7] = cited from earlier work
[8] = cited from earlier work; remark: listed apart in the source

What does the source list for `O=c1[nH]c(=O)n([C@H]2C[C@H](O)[C@@H](CO)O2)cc1F` [FUDR, 5-fluorodeoxyuridine]?
Mortality (%) [1]: 0%; Mortality (%) ([1]; listed as free Floxuridine): all surviving; Teratogenicity [2]: Teratogenic; Mutagenicity (mouse embryo fibroblasts): Mutagenic; Lethal Intravenous Doses [3]: 880 +/− 51; Lethal Intravenous Doses [4]: 670 +/− 73; Lethal Intravenous Doses [5]: 94 +/− 19.6; Lethal Intravenous Doses [6]: 157 +/− 46; MTD, cumulative dose ([7]; 50 mg/kg/day × 5 days): 250 mg/kg; maximum tolerated dose (MTD) ([7]; normal (immunocompetent) mice, intraperitoneal injection, × 5 days): 50 mg/kg/day; Reproductive Toxicant, female ([8]; female rats at 25 or 50 mg/kg): reproductive toxicity; Teratogenicity ([8]; rat at 75 and 150 mg/kg (cleft palate, skeletal defects, limb deformities)): Teratogenic; Reproductive Toxicant, male ([8]; rats at 125-250 mg/kg i.p.): spermato-toxic
